Several values for one entry are separate records, joined by “and”; a condition that tells them apart may be missing. Identical values can stand only once. Toxic doses and inconclusive results are not listed. No stated cut-off is given here; in the data, active means T/C of 150% or more; inactive means T/C below 125%.
Tested on: L1210 leukemia ip in BDF1 mice, survival T/C
Assay: NCI In Vivo Anticancer Drug Screen. Data for tumor model L1210 Leukemia (intraperitoneal) in B6D2F1 (BDF1) mice
Details: endpoint: mean survival time, higher = longer survival
How it was run: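 Survival endpoint. Drug-treated group vs vehicle group, expressed as T divided by C. Tumor passaged by transplantation.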

[1] = dose: 100.0 mg/kg/injection, schedule: Q04DX003 (ip), vehicle: saline with Tween-80
[2] = dose: 200.0 mg/kg/injection, schedule: Q04DX003 (ip), vehicle: saline with Tween-80
[3] = dose: 400.0 mg/kg/injection, schedule: Q04DX003 (ip), vehicle: saline with Tween-80
[4] = dose: 200.0 mg/kg/injection, schedule: Q04DX003 (ip), vehicle: Klucel (hydroxypropylcellulose) (HPC)
[5] = dose: 400.0 mg/kg/injection, schedule: Q04DX003 (ip), vehicle: Klucel (hydroxypropylcellulose) (HPC)
[6] = dose: 100.0 mg/kg/injection, schedule: Q04DX003 (ip), vehicle: saline
[7] = dose: 100.0 mg/kg/injection, schedule: Q01DX009 (ip), vehicle: saline with Tween-80
[8] = dose: 200.0 mg/kg/injection, schedule: Q01DX009 (ip), vehicle: saline with Tween-80
[9] = dose: 50.0 mg/kg/injection, schedule: Q01DX009 (ip), vehicle: saline with Tween-80
[10] = dose: 100.0 mg/kg/injection, schedule: Q01DX001 (ip), vehicle: Klucel (hydroxypropylcellulose) (HPC)
[11] = dose: 100.0 mg/kg/injection, schedule: Q04DX003 (ip), vehicle: Klucel (hydroxypropylcellulose) (HPC)
[12] = dose: 200.0 mg/kg/injection, schedule: Q01DX001 (ip), vehicle: Klucel (hydroxypropylcellulose) (HPC)
[13] = dose: 400.0 mg/kg/injection, schedule: Q01DX001 (ip), vehicle: Klucel (hydroxypropylcellulose) (HPC)
[14] = dose: 100.0 mg/kg/injection, schedule: Q01DX005 (ip), vehicle: saline
[15] = dose: 200.0 mg/kg/injection, schedule: Q01DX005 (ip), vehicle: saline
[16] = dose: 50.0 mg/kg/injection, schedule: Q01DX009 (ip), vehicle: Klucel (hydroxypropylcellulose) (HPC)
[17] = dose: 100.0 mg/kg/injection, schedule: Q01DX009 (ip), vehicle: Klucel (hydroxypropylcellulose) (HPC)
[18] = dose: 200.0 mg/kg/injection, schedule: Q01DX009 (ip), vehicle: Klucel (hydroxypropylcellulose) (HPC)

Measured: T/C

Cc1cccc(N=Cc2ccc(Cl)cc2Cl)c1C
inactive: dose: 100.0 mg/kg/injection, schedule: Q01DX009 (ip), vehicle: alcohol 95 % of control | dose: 100.0 mg/kg/injection, schedule: Q04DX002 (ip), vehicle: saline with Tween-80 106 % of control | dose: 200.0 mg/kg/injection, schedule: Q01DX009 (ip), vehicle: alcohol 87 % of control | dose: 200.0 mg/kg/injection, schedule: Q04DX002 (ip), vehicle: saline with Tween-80 102 % of control | dose: 400.0 mg/kg/injection, schedule: Q04DX002 (ip), vehicle: saline with Tween-80 98 % of control

CCCCCCCCCCCCCCCC(=O)OCCCCCCCCCC
inactive: [1] 100 % of control | [2] 87 % of control | [3] 95 % of control

Cc1ccc(S/C(=C/c2ccccc2)C(N)=O)cc1
inactive: [4] 93 % of control | [5] 95 % of control

CCOC(=O)CN(c1c(C)cc(C)c(N(CC(=O)OCC)S(=O)(=O)c2ccccc2)c1C)S(=O)(=O)c1ccccc1
inactive: [6] 93 % of control | dose: 200.0 mg/kg/injection, schedule: Q04DX003 (ip), vehicle: saline 101 % of control | dose: 400.0 mg/kg/injection, schedule: Q04DX003 (ip), vehicle: saline 93 % of control

CC(C)(C)C(=O)C#Cc1ccccc1
inactive: dose: 25.0 mg/kg/injection, schedule: Q04DX003 (ip), vehicle: saline 102 % of control | dose: 50.0 mg/kg/injection, schedule: Q04DX003 (ip), vehicle: saline 96 % of control | [6] 89 % of control

Cn1ncc(=O)n(C)c1=O
inactive: dose: 50.0 mg/kg/injection, schedule: Q01DX009 (ip), vehicle: saline 97 % of control | dose: 100.0 mg/kg/injection, schedule: Q01DX009 (ip), vehicle: saline 97 % of control | dose: 200.0 mg/kg/injection, schedule: Q01DX009 (ip), vehicle: saline 93 % of control

Clc1ccc(/C(=C(\Br)c2ccccc2)c2ccccc2)cc1
inactive: [7] 96 % of control and 98 % of control | [8] 95 % of control and 101 % of control | dose: 400.0 mg/kg/injection, schedule: Q01DX009 (ip), vehicle: saline with Tween-80 96 % of control and 102 % of control

COC(=O)C1(C)CCCC2(C)C1CCC13OCC(CC21)C(O)(C(C)C)C3O (stereo not given)
inactive: [9] 97 % of control | [7] 97 % of control | [8] 90 % of control

Cc1cc(C)c(Sc2ccc([N+](=O)[O-])c3ccccc23)c(C)c1
inactive: [10] 102 % of control | [11] 94 % of control | [12] 98 % of control | [4] 100 % of control | [13] 95 % of control | [5] 90 % of control

Cc1noc(/N=C/c2cccc(Cl)c2)c1C
inactive: dose: 100.0 mg/kg/injection, schedule: Q01DX001 (ip), vehicle: saline 101 % of control | dose: 200.0 mg/kg/injection, schedule: Q01DX001 (ip), vehicle: saline 105 % of control | dose: 400.0 mg/kg/injection, schedule: Q01DX001 (ip), vehicle: saline 101 % of control

C[N+](C)(C)CCC[N+]1(C)Cc2ccccc2C1
inactive: dose: 55.0 mg/kg/injection, schedule: Q01DX Z (ip), vehicle: saline 91 % of control | dose: 83.0 mg/kg/injection, schedule: Q01DX Z (ip), vehicle: saline 97 % of control | dose: 125.0 mg/kg/injection, schedule: Q01DX Z (ip), vehicle: saline 96 % of control

COc1ccccc1-n1c(O)c(N=Nc2ccccc2C)c(=O)n(-c2ccccc2OC)c1=S
inactive: [11] 96 % of control | [4] 94 % of control | [5] 100 % of control

Nc1ncn(C2CC(OC(=O)c3ccc(Cl)cc3)C(COC(=O)c3ccc(Cl)cc3)O2)c(=O)n1 (stereo not given)
inactive: [14] 110 % of control and 122 % of control | [15] 104 % of control

COc1cc(NC(=O)Nc2ccc(Cl)c(C(F)(F)F)c2)ccc1NC(C)=O
inactive: dose: 50.0 mg/kg/injection, schedule: Q01DX009 (ip), vehicle: carboxymethylcellulose (CMC) 96 % of control and 103 % of control | dose: 100.0 mg/kg/injection, schedule: Q01DX001 (ip), vehicle: carboxymethylcellulose (CMC) 103 % of control and 105 % of control | dose: 100.0 mg/kg/injection, schedule: Q04DX002 (ip), vehicle: carboxymethylcellulose (CMC) 94 % of control | dose: 100.0 mg/kg/injection, schedule: Q04DX003 (ip), vehicle: carboxymethylcellulose (CMC) 101 % of control and 105 % of control | dose: 200.0 mg/kg/injection, schedule: Q01DX001 (ip), vehicle: carboxymethylcellulose (CMC) 100 % of control and 102 % of control | dose: 200.0 mg/kg/injection, schedule: Q04DX002 (ip), vehicle: carboxymethylcellulose (CMC) 96 % of control and 90 % of control | dose: 200.0 mg/kg/injection, schedule: Q04DX003 (ip), vehicle: carboxymethylcellulose (CMC) 92 % of control and 99 % of control | dose: 400.0 mg/kg/injection, schedule: Q01DX001 (ip), vehicle: carboxymethylcellulose (CMC) 97 % of control and 105 % of control | dose: 400.0 mg/kg/injection, schedule: Q04DX002 (ip), vehicle: carboxymethylcellulose (CMC) 96 % of control and 90 % of control | dose: 400.0 mg/kg/injection, schedule: Q04DX003 (ip), vehicle: carboxymethylcellulose (CMC) 92 % of control

COC(=O)c1cn(/C=C/c2ccccc2)cn1
inactive: dose: 87.5 mg/kg/injection, schedule: Q04DX003 (ip), vehicle: Klucel (hydroxypropylcellulose) (HPC) 94 % of control | dose: 175.0 mg/kg/injection, schedule: Q04DX003 (ip), vehicle: Klucel (hydroxypropylcellulose) (HPC) 89 % of control | dose: 350.0 mg/kg/injection, schedule: Q04DX003 (ip), vehicle: Klucel (hydroxypropylcellulose) (HPC) 97 % of control

Cn1c(C=O)cc(=O)[nH]c1=S
inactive: [16] 92 % of control | [17] 93 % of control | [11] 100 % of control | [18] 93 % of control | [4] 105 % of control | [5] 100 % of control

CCOC(=O)C(C(=O)OCC)C1c2ccccc2NC(=O)c2ccccc21 (stereo not given)
inactive: [17] 100 % of control | [11] 90 % of control | [18] 100 % of control | [4] 90 % of control | dose: 400.0 mg/kg/injection, schedule: Q01DX009 (ip), vehicle: Klucel (hydroxypropylcellulose) (HPC) 91 % of control | [5] 88 % of control

CCCCCCCCCCCCCCCCSc1ccc(S(=O)(=O)N(C)C)cc1C(=O)O
inactive: [1] 98 % of control | [2] 91 % of control | [3] 89 % of control

Cc1ccc(NC(=O)OCCOc2ccc(Cl)cc2Cl)cc1[N+](=O)[O-]
inactive: [9] 97 % of control | [7] 104 % of control | [8] 104 % of control

CCCC1=C(CCC)C1C(=O)O
inactive: [16] 91 % of control | [17] 100 % of control | [11] 103 % of control | [18] 88 % of control | [4] 96 % of control

O=C1NC(=O)C2(CCCCCCC2)N1
inactive: [16] 104 % of control | dose: 50.0 mg/kg/injection, schedule: Q04DX003 (ip), vehicle: Klucel (hydroxypropylcellulose) (HPC) 111 % of control | [17] 96 % of control | [11] 99 % of control | [18] 96 % of control | [4] 103 % of control

C/C=C/C1N(C)CCCN1C
inactive: dose: 25.0 mg/kg/injection, schedule: Q01DX009 (ip), vehicle: saline with Tween-80 97 % of control | dose: 25.0 mg/kg/injection, schedule: Q04DX003 (ip), vehicle: saline with Tween-80 102 % of control | [9] 98 % of control | dose: 50.0 mg/kg/injection, schedule: Q04DX003 (ip), vehicle: saline with Tween-80 93 % of control | [1] 91 % of control

NNC(=O)c1c(C(N)=O)n[nH]c1C1OC(COCc2ccccc2)C(OCc2ccccc2)C1OCc1ccccc1 (stereo not given)
inactive: [14] 97 % of control and 93 % of control | [15] 100 % of control and 101 % of control

CCN(CC)C(=O)CBr
inactive: dose: 50.0 mg/kg/injection, schedule: Q01DX001 (ip), vehicle: Klucel (hydroxypropylcellulose) (HPC) 99 % of control | [10] 99 % of control | [12] 97 % of control

Cc1ccc2c(CCCC(=O)O)c(C)c(=O)oc2c1
inactive: [10] 98 % of control | [11] 103 % of control | [12] 98 % of control | [4] 96 % of control | [13] 100 % of control | [5] 88 % of control

Clc1ccc(SSC(Cl)(Cl)Cl)cc1
inactive: dose: 25.0 mg/kg/injection, schedule: Q01DX009 (ip), vehicle: Klucel (hydroxypropylcellulose) (HPC) 98 % of control | [16] 88 % of control | [17] 93 % of control

C/C=C/C[P+](Cc1ccccc1)(c1ccccc1)c1ccccc1
inactive: dose: 3.13 mg/kg/injection, schedule: Q01DX009 (ip), vehicle: saline with Tween-80 103 % of control | dose: 12.5 mg/kg/injection, schedule: Q01DX009 (ip), vehicle: saline with Tween-80 120 % of control and 91 % of control

From PubChem BioAssay AID248 (DTP/NCI, 2004)
